Measurements reported in publication PMC11758220, “Identification of a Privileged Scaffold for Inhibition of Sterol Transport Proteins through the Synthesis and Ring Distortion of Diverse, Pseudo-Natural Products” (ACS Central Science, 2025).
pIC50, pKd: −log10 of the molar value.

Assays:
Type in all cases: binding
[1] = biological target: T1, Aster-A (Homo sapiens, UniProt Q96CP6); experiment: Fluorescence polarisation (FP) competition with NBD-cholesterol, Aster-A; conditions: for pIC50: mean of three experiments run in technical duplicates; for Aster-A (FP) inhibition / inhibition at 10 µM: single dose, Dose = 10 µM
T1 construct: Aster-A(359-547); GST (PreScission-cleavable) (N, cleaved yes); made in house; host or cells: E. coli OverExpress C41
T1 sequence (Q96CP6 359-547): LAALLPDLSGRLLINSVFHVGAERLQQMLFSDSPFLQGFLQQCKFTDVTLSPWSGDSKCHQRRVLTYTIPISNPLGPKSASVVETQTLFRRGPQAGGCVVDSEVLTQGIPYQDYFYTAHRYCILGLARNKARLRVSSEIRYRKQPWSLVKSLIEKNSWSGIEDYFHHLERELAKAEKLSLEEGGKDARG
Excerpt: (§1) Protein expression constructs
(§2) Human ASTER domains of Aster-A(359-547), -B(364-552) and -C(318-504) were subcloned into a pGEX-6p-2rbs vector, thus introducing the cloning artifact ‘GPLGS’.3 The pGEX-6P-1-GST-OSBP(377- […]
(§3) a gift from James H. Hurley (University of California).4 The pHIS_2His6_Thrombin_STARD4(2-205;C75S) plasmid was a gift from Young Jun Im (Chonnam National University).5 STARD5A was a gift from Nicola Burgess-Brown (Addgene plasmid #42392; http://n2t.net/addgene:42392; […]
(§4) Protein expression and purification […]
(§5) vectors including an N-terminal PreScission-cleavable glutathione S-transferase (GST)-tag were expressed in Escherichia coli (E. coli) OverExpress C41 in Terrific Broth (TB) medium for 16 h at 18 °C after the induction with 0.1 mM isopropyl β-D-1-thiogalactopyranoside (IPTG). Cells were harvested at 3500 × g for 15 minutes and lysed by sonication in buffer containing 50 mM HEPES pH 7.5, 300 mM NaCl, 10 %v/v glycerol, 5 mM dithiothreitol (DTT), 0.1 %v/v Triton X-100 and protease inhibitor mix HP plus (Serva). The lysate was purified by affinity chromatography on a GSTrap FF column (Cytiva) using an ÄKTA Start (Cytiva) in buffer containing 50 mM HEPES pH 7.5, 300 mM NaCl, 10 %v/v glycerol, 5 mM DTT and 0.01 %v/v Triton X-100. The GST-tag was cleaved overnight on the column at 4 °C. The Aster sterol binding domains were further purified by size-exclusion chromatography (SEC) on a HiLoad 16/600 Superdex 75 pg (Cytiva) in buffer containing 20 mM HEPES pH 7.5, 300 mM NaCl, 10 %v/v […]
(§6) STARD5(6-213) harboring an N-terminal His6-Tag were expressed in E. coli BL21(DE3) in Luria-Bertani Broth (LB) medium for approximately 16 h at 18 °C after induction with 0.15 mM IPTG. Cells were harvested at 3500 × g for 15 minutes and lysed by sonication in buffer containing 50 mM HEPES pH 7.5, 150 mM NaCl, 5 %v/v glycerol, 5 mM DTT, 0.1 %v/v Triton X -100 and ethylenediaminetetraacetic acid (EDTA)-free protease inhibitor cocktail (Sigma-Aldrich). The cleared lysate was purified by affinity chromatography on a Ni-NTA Superflow Cartridge (Qiagen) using an ÄKTA Start (Cytiva) in buffer containing 50 mM HEPES pH 7.5, 150 mM NaCl, 5 %v/v glycerol, 5 mM DTT. START domains were eluted by using elution buffer containing 50 mM HEPES pH 7.5, 150 mM NaCl, 5 %v/v glycerol, 5 mM DTT and 500 mM imidazole. Proteins were further purified by SEC on a HiLoad 16/600 Superdex 75 pg (Cytiva) in buffer containing 20 mM HEPES pH 7.5, 150 mM NaCl, 5 %v/v glycerol and 2 mM DTT.
(§7) The ORP domain of human OSBP(377-807) in the pGEX-6p-1 vector with an N-terminal PreScission-cleavable GST-tag was expressed in E. coli OverExpress C41 in LB medium for 16 h at 18 °C after induction with 0.1 mM IPTG. Cells were harvested at 3500 × g for 15 minutes and lysed by sonication in buffer containing 20 mM HEPES pH 7.5, 300 mM NaCl, 10 %v/v glycerol, 5 mM DTT, 0.1 %v/v Triton X-100 and EDTA-free protease inhibitor cocktail (Sigma-Aldrich). The cleared lysate was purified by affinity chromatography on a GSTrap HF column (Cytiva) using an ÄKTA Start (Cytiva) in buffer containing 20 mM HEPES pH 7.5, 300 mM NaCl, 10 %v/v glycerol, 5 mM DTT. OSBP(377 -807) was eluted by using elution buffer containing 20 mM HEPES pH 7.5, 300 mM NaCl, 10 %v/v glycerol, 5 mM DTT and 10 mM reduced glutathione. Proteins were further purified by SEC on a HiLoad 16/600 Superdex 75 pg (Cytiva) using an ÄKTA Explorer (Cytiva) in buffer containing 20 mM HEPES pH 7.5, 150 mM NaCl, 10 %v/v glycerol and 2 mM DTT.
(§8) The ORP domains of human ORP1(534-950) in pET24b(+) and ORP2(49-480) in the pET24b(+) vector including an N-terminal His6-Tag were expressed in E. coli BL21(DE3) in TB medium for approximately 16 h at 18 °C after induction with 0.1 mM IPTG. Cells were collected at 3500 × g for 15 minutes and lysed by sonification in buffer containing 10 mM Tris-HCl pH 8, 300 mM NaCl, 5 % glycerol, 2 mM DTT, 0.1 % Triton X-100 and EDTA-free protease inhibitor cocktail (Sigma-Aldrich). The cleared […]

[2] = biological target: T2, Aster-B (Homo sapiens, UniProt Q3KR37); experiment: Fluorescence polarisation (FP) competition with NBD-cholesterol, Aster-B; conditions: for pIC50: mean of three experiments run in technical duplicates; for Aster-B (FP) inhibition / inhibition at 10 µM: single dose, Dose = 10 µM
T2 construct: -B(364-552); GST (PreScission-cleavable) (N, cleaved yes); made in house; host or cells: E. coli OverExpress C41
T2 sequence (Q3KR37 364-552): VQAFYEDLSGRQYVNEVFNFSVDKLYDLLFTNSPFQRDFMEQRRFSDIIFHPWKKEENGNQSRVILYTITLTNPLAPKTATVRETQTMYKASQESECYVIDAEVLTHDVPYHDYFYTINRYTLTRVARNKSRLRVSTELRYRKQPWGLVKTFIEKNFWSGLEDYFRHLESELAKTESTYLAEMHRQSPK
Excerpt: as §1, §2, §3, §4, §5, §6, §7, §8

[3] = biological target: T3, STARD4 (Homo sapiens, UniProt Q96DR4, C75S); experiment: Differential scanning fluorimetry (DSF), STARD4; conditions: for pKd: apparent Kd, mean of three experiments run in technical duplicates, read-out: STARD4 Kd,app (DSF); for STARD4 (DSF) ΔTm / ΔTm at 10 µM: single dose, Dose = 10 µM; for STARD4 (DSF) ΔTmmax: maximal thermal shift
T3 construct: STARD4(2-205; C75S); made in house; host or cells: E. coli BL21(DE3)
T3 sequence (Q96DR4 2-205 C75S): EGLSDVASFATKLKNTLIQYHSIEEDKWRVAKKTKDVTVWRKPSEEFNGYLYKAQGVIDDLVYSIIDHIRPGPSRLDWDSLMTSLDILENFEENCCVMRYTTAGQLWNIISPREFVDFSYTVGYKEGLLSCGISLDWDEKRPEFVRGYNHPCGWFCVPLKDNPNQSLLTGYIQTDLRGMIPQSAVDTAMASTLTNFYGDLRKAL

Row | Compound | pIC50 [1] | Aster-A (FP) inhibition [1] [%] | pIC50 [2] | Aster-B (FP) inhibition [2] [%] | pKd [3] | STARD4 (DSF) ΔTm [3] [°C] | inhibition at 10 µM [1] [%] | inhibition at 10 µM [2] [%] | ΔTm at 10 µM [3] [°C] | STARD4 (DSF) ΔTmmax [3] [°C] | Activity against Aster-A (in words) ([1]; FP)
1 | CC(C)Oc1ccc(C(=O)Nc2nc3c(s2)CN(C(=O)OC(C)(C)C)CC3)cc1 [Autogramin-2, reference compound] | 5.96 | 70 | < 4.10 | 5 | < 4.52 | 0.2 | – | – | – | – | –
2 | C[C@]12CC[C@@H](O)C[C@H]1CCC(=O)c1cc(Br)ccc1NC2=O [Compound 11b] | – | – | – | – | – | – | 1 | 7.5 | 0.126 | – | –
3 | C[C@]12CC[C@@H](O)C[C@H]1CCc1c2[nH]c2c(F)cc(Cl)cc12 [Compound 10i] | – | – | – | – | – | – | -8 | -4 | 0.441 | – | –
4 | CC12CCC3CC1CCC21C(=Nc2ccc(N4CCOCC4)cc21)O3 (single isomer, unassigned; (+)) [(+)-19a] | 4.81 | 12 | < 4.10 | – | < 4.30 | 0.4 | – | 7.5 | – | 1.1 | –
5 | C[C@]12CC[C@@H](O)C[C@H]1CCc1nc3ccccc3nc12 [Compound 7a] | – | – | – | – | – | – | 14 | 23 | 0.0574 | – | –
6 | C[C@]12CC[C@@H](O)C[C@H]1CCc1sc(-c3ccc(F)cc3)nc12 [Compound 8e] | – | -3 | – | 8 | – | 0.7 | – | – | – | – | –
7 | C[C@]12CC[C@@H](O)C[C@H]1CCc1sc(-c3cccnc3)nc12 [Compound 8c] | – | 0 | – | 7 | – | 0.173 | – | – | – | – | –
8 | C[C@]12CC[C@@H](O)C[C@H]1CCc1c2[nH]c2ncccc12 [Compound 3] | – | – | – | – | – | – | -2 | 8 | -0.021 | – | –
9 | Cc1c2c(nc3cc(Br)ccc13)[C@@]1(C)CC[C@@H](O)C[C@H]1CC2 [Compound 2c] | – | -1 | – | 9 | – | 0.0489 | – | – | – | – | –
10 | C[C@]12CC[C@@H](O)C[C@H]1CCc1c2nc2ccccc2c1-c1ccccc1 [Compound 2b] | – | -2 | – | 2.5 | – | -0.0888 | – | – | – | – | –
11 | C[C@]12CC[C@@H]3C[C@H]1CC[C@@]21C(=Nc2ccc(-c4ccccc4)cc21)O3 [Compound 21a] | 5.60 | – | < 4.10 | – | – | – | 67 | 25 | 0.8 | – | –
12 | C[C@]12CC[C@@H]3C[C@H]1CC[C@@]21C(=Nc2ccc(N(Cc4ccccc4)c4ccc5c(c4)[C@@]46CC[C@@H]7C[C@@H](CC[C@@]74C)OC6=N5)cc21)O3 [Compound 20a] | – | 4 | – | 6 | – | 0.0479 | – | – | – | – | –
13 | C[C@]12CC[C@@H](O)C[C@H]1CCc1c2nc2ccc(Cl)cc2c1-c1ccccc1 [Compound 2e] | – | -4 | – | 2.5 | – | -0.00387 | – | – | – | – | –
14 | COc1ccc(-c2nc3c(s2)CC[C@@H]2C[C@H](O)CC[C@]32C)cc1 [Compound 8d] | – | – | – | – | – | – | -1 | 6 | 0.3 | – | –
15 | Cc1ccc2[nH]c3c(c2c1)CC[C@@H]1C[C@H](O)CC[C@]31C [Compound 10e] | – | – | – | – | – | – | -4 | 1.67 | 0.284 | – | –
16 | C[C@]12CC[C@@H](O)C[C@H]1CCc1c2[nH]c2ccccc12 [Compound 10a] | – | 1 | – | 7.5 | – | 0.0293 | – | – | – | – | –
17 | C[C@]12CC[C@@H]3C[C@H]1CC[C@@]21C(=Nc2ccc(C(F)(F)F)cc21)O3 [Compound 15g] | 5.80 | – | < 4.10 | – | – | – | 79 | 18 | 1 | – | –
18 | CCCCCNc1ccc2c(c1)[C@@]13CC[C@@H]4C[C@@H](CC[C@@]41C)OC3=N2 [Compound 19c] | 5.30 | – | < 4.10 | – | 5.39 | – | 59 | 11 | 4.5 | 7.2 | –
19 | C[C@]12CC[C@@H](O)C[C@H]1CCC(=O)c1cc(C(F)(F)F)ccc1NC2=O [Compound 11e] | – | – | – | – | – | – | -2 | 7 | -0.0316 | – | –
20 | C[C@]12CC[C@@H](O)C[C@H]1CCc1c2[nH]c2ccc(I)cc12 [Compound 10h] | – | 7 | – | 32 | – | -0.0169 | – | – | – | – | –
21 | C[C@]12CC[C@@H]3C[C@H]1CC[C@@]21C(=Nc2ccc(N4CCN(Cc5ccncc5)CC4)cc21)O3 [Compound 24] | 5.27 | – | < 4.10 | – | 5.19 | – | 54 | 12 | 3 | 4.2 | –
22 | Cc1ccc2c(c1)[C@]1(O)CC[C@@H]3C[C@H](O)CC[C@]3(C)C1=N2 [Compound 14a] | – | – | – | – | – | – | 3 | 12 | 0.8 | – | –
23 | CC12CCC3CC1CCC21C(=Nc2c(Br)cc(C(F)(F)F)cc21)O3 (stereo not shown) [Compound 15h] | < 4.10 | – | < 4.10 | – | – | – | 2 | 18 | 0.106 | – | inactive against Aster-A
